Measured values published in patent US11352339B2 (MISSION THERAPEUTICS LIMITED, priority 2016, dated 2022).

molecular target: USP30 (Homo sapiens (Human), UniProt Q70CQ3); assay: USP30 Biochemical IC50 Assay; conditions: fluorescence polarisation, TAMRA labelled peptide linked to ubiquitin; 30 min pre-incubation, read after 2 h; read-out: IC50 range
Procedure: Reactions were performed in duplicate in black 384 well plates (small volume, Greiner 784076) in a final reaction volume of 21 μl. Either 1 μl of 50% DMSO or diluted compound was added to the plate. […] Enzyme and compound were incubated for 30 min at room temp. Reactions were initiated by the addition of 50 nM of TAMRA labelled peptide linked to ubiquitin via an iso-peptide bond as fluorescence polarisation substrate. Reactions were read immediately after addition of substrate and following a 2 h incubation at room temperature. Readings were performed on a Pherastar Plus (BMG Labtech). λ Excitation 540 nm; λ Emission 590 nm.

Chain of USP30 (Q70CQ3 57-517): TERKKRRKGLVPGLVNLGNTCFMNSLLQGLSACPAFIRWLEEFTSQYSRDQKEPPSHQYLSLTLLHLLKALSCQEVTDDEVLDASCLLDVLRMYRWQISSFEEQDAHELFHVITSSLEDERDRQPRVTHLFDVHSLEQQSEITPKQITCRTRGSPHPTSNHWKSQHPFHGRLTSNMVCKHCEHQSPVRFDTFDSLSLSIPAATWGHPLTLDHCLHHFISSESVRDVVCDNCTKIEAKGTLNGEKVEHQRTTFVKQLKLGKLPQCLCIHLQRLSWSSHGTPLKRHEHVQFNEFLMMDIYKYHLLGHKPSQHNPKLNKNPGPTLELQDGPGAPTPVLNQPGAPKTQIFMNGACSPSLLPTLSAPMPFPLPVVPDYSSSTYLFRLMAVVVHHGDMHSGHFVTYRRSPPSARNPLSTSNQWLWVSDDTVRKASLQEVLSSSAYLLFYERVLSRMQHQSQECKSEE

IC50	Compound
100 to 1000 nM	CNC(=O)c1ccc(-c2ccc3nc(C4CCN(C#N)C4)[nH]c3c2)cc1 (stereo not shown) [Example 75, 4-(2-(1-Cyanopyrrolidin-3-yl)-1H-benzo[d]imidazol-6-yl)-N-methylbenzamide]
< 100 nM	Cc1ccc(F)c(-c2ccc3nc(C4CCN(C#N)C4)[nH]c3c2)c1 (stereo not shown) [Example 76, 3-(6-(2-Fluoro-5-methylphenyl)-1H-benzo[d]imidazol-2-yl)pyrrolidine-1-carbonitrile]
100 to 1000 nM	CC(C)Oc1ccc(-c2ccc3nc(C4CCN(C#N)C4)[nH]c3c2)cn1 (stereo not shown) [Example 77, 3-(6-(6-Isopropoxypyridin-3-yl)-1H-benzo[d]imidazol-2-yl)pyrrolidine-1-carbonitrile]
1000 to 10000 nM	CC(C)Cn1cc(-c2ccc3nc(C4CCN(C#N)C4)[nH]c3c2)cn1 (stereo not shown) [Example 78, 3-(6-(1-Isobutyl-1H-pyrazol-4-yl)-1H-benzo[d]imidazol-2-yl)pyrrolidine-1-carbonitrile]
100 to 1000 nM	N#CN1CCC(c2nc3ccc(-c4ccc(C(=O)NCc5ccccc5)cc4)cc3[nH]2)C1 (stereo not shown) [Example 79, N-Benzyl-4-(2-(1-cyanopyrrolidin-3-yl)-1H-benzo[d]imidazol-6-yl)benzamide]
100 to 1000 nM	N#CN1CCC(c2nc3cc(-c4ccncc4)cnc3[nH]2)C1 (stereo not shown) [Example 80, 3-(6-(Pyridin-4-yl)-3H-imidazo[4,5-b]pyridin-2-yl)pyrrolidine-1-carbonitrile]
100 to 1000 nM	N#CN1CCC(c2nc3cc(-c4ccccc4)cnc3[nH]2)C1 (stereo not shown) [Example 83, 3-(6-Phenyl-3H-imidazo[4,5-b]pyridin-2-yl)pyrrolidine-1-carbonitrile]
100 to 1000 nM	N#Cc1ccc(-c2cnc3[nH]c(C4CCN(C#N)C4)nc3c2)cc1 (stereo not shown) [Example 84, 3-(6-(4-Cyanophenyl)-3H-imidazo[4,5-b]pyridin-2-yl)pyrrolidine-1-carbonitrile]
100 to 1000 nM	N#Cc1cccc(-c2cnc3[nH]c(C4CCN(C#N)C4)nc3c2)c1 (stereo not shown) [Example 85, 3-(6-(3-Cyanophenyl)-3H-imidazo[4,5-b]pyridin-2-yl)pyrrolidine-1-carbonitrile]
100 to 1000 nM	COc1ccc(-c2cnc3[nH]c(C4CCN(C#N)C4)nc3c2)cn1 (stereo not shown) [Example 86, 3-(6-(6-Methoxypyridin-3-yl)-3H-imidazo[4,5-b]pyridin-2-yl)pyrrolidine-1-carbonitrile]
100 to 1000 nM	N#CN1CCC(c2nc3cc(-c4ccc5[nH]ncc5c4)cnc3[nH]2)C1 (stereo not shown) [Example 87, 3-(6-(1H-Indazol-5-yl)-3H-imidazo[4,5-b]pyridin-2-yl)pyrrolidine-1-carbonitrile]
1000 to 10000 nM	N#CN1CCC(c2nc3cc(-c4cn[nH]c4)cnc3[nH]2)C1 (stereo not shown) [Example 88, 3-(6-(1H-Pyrazol-4-yl)-3H-imidazo[4,5-b]pyridin-2-yl)pyrrolidine-1-carbonitrile]
1000 to 10000 nM	CNC(=O)c1cccc(-c2cnc3[nH]c(C4CCN(C#N)C4)nc3c2)c1 (stereo not shown) [Example 89, 3-(2-(1-Cyanopyrrolidin-3-yl)-3H-imidazo[4,5-b]pyridin-6-yl)-N-methylbenzamide]
1000 to 10000 nM	N#CN1CCC[C@H]1c1nc2ccc(-c3ccccc3)cc2[nH]1 [Example 94, (S)-2-(6-Phenyl-1H-benzo[d]imidazol-2-yl)pyrrolidine-1-carbonitrile]
100 to 1000 nM	N#CN1CCC(c2nc3cc(-c4ccccc4)ccc3[nH]2)C1 (stereo not shown) [Example 95, 3-(5-Phenyl-1H-benzo[d]imidazol-2-yl)pyrrolidine-1-carbonitrile]
10000 to 100000 nM	Cn1c([C@@H]2CCCN2C#N)nc2cc(-c3ccccc3)ccc21 [Example 96, (S)-2-(1-Methyl-5-phenyl-1H-benzo[d]imidazol-2-yl)pyrrolidine-1-carbonitrile]
1000 to 10000 nM	N#CN1CCC(c2nc3ccc(-c4ccccc4)nc3[nH]2)C1 (stereo not shown) [Example 97, 3-(5-Phenyl-3H-imidazo[4,5-b]pyridin-2-yl)pyrrolidine-1-carbonitrile]
1000 to 10000 nM	N#CN1CCC(c2nc3nccc(-c4ccccc4)c3[nH]2)C1 (stereo not shown) [Example 98, 3-(7-Phenyl-3H-imidazo[4,5-b]pyridin-2-yl)pyrrolidine-1-carbonitrile]
100 to 1000 nM	Cc1nc2nc(C3CCN(C#N)C3)[nH]c2cc1-c1ccccc1 (stereo not shown) [Example 99, 3-(5-Methyl-6-phenyl-3H-imidazo[4,5-b]pyridin-2-yl)pyrrolidine-1-carbonitrile]
100 to 1000 nM	Cc1c(-c2ccccc2)cnc2nc(C3CCN(C#N)C3)[nH]c12 (stereo not shown) [Example 100, 3-(7-Methyl-6-phenyl-3H-imidazo[4,5-b]pyridin-2-yl)pyrrolidine-1-carbonitrile]
100 to 1000 nM	Cn1c(C2CCN(C#N)C2)nc2cc(-c3ccccc3)cnc21 (stereo not shown) [Example 101, 3-(3-Methyl-6-phenyl-3H-imidazo[4,5-b]pyridin-2-yl)pyrrolidine-1-carbonitrile]
1000 to 10000 nM	N#CN1CCC(c2nnc(-c3ccccn3)[nH]2)C1 (stereo not shown) [Example 105, 3-(5-(Pyridin-2-yl)-4H-1,2,4-triazol-3-yl)pyrrolidine-1-carbonitrile]

IC50	Compound
1000 to 10000 nM	N#CN1CCC(c2nnc(-c3ccccc3)[nH]2)C1 (stereo not shown) [Example 106, 3-(5-Phenyl-4H-1,2,4-triazol-3-yl)pyrrolidine-1-carbonitrile]
1000 to 10000 nM	N#CN1CCC(c2nnc(-c3ccc4nc[nH]c4c3)[nH]2)C1 (stereo not shown) [Example 107, 3-(5-(1H-Benzo[d]imidazol-6-yl)-4H-1,2,4-triazol-3-yl)pyrrolidine-1-carbonitrile]
1000 to 10000 nM	N#CN1CCC(c2nnc(-c3ccc4nccn4c3)[nH]2)C1 (stereo not shown) [Example 108, 3-(5-(Imidazo[1,2-a]pyridin-6-yl)-4H-1,2,4-triazol-3-yl)pyrrolidine-1-carbonitrile]
100 to 1000 nM	N#CN1CCC(c2n[nH]c(-c3cc(-c4ccccc4)ccn3)n2)C1 (stereo not shown) [Example 109, 3-(5-(4-Phenylpyridin-2-yl)-4H-1,2,4-triazol-3-yl)pyrrolidine-1-carbonitrile]
100 to 1000 nM	N#CN1CCC(c2nnc(-c3cccc(-c4ccccc4)n3)[nH]2)C1 (stereo not shown) [Example 110, 3-(5-(6-Phenylpyridin-2-yl)-4H-1,2,4-triazol-3-yl)pyrrolidine-1-carbonitrile]
< 100 nM	N#CN1CCC(c2n[nH]c(-c3cccc(-c4ccccc4)c3)n2)C1 (stereo not shown) [Example 111, 3-(3-([1,1′-Biphenyl]-3-yl)-1H-1,2,4-triazol-5-yl)pyrrolidine-1-carbonitrile]
100 to 1000 nM	N#CN1CCC(c2nnc(-c3ccc(-c4ccccc4)cc3)[nH]2)C1 (stereo not shown) [Example 112, 3-(3-([1,1′-Biphenyl]-4-yl)-1H-1,2,4-triazol-5-yl)pyrrolidine-1-carbonitrile]
< 100 nM	N#CN1CCC(c2cc(-c3cccc(-c4ccccc4)c3)no2)C1 (stereo not shown) [Example 117, 3-(3-([1,1′-Biphenyl]-3-yl)isoxazol-5-yl)pyrrolidine-1-carbonitrile]
1000 to 10000 nM	N#CN1CCC(c2ncc(-c3ccccc3)c(=O)[nH]2)C1 (stereo not shown) [Example 120, 3-(6-Oxo-5-phenyl-1,6-dihydropyrimidin-2-yl)pyrrolidine-1-carbonitrile]
1000 to 10000 nM	Cc1cn(-c2ccc3n(c2=O)CCN([C@@H]2CCN(C#N)C2)C3=O)cn1 [Example 121, (R)-3-(7-(4-Methyl-1H-imidazol-1-yl)-1,6-dioxo-1,3,4,6-tetrahydro-2H-pyrido[1,2-a]pyrazin-2-yl)pyrrolidine-1-carbonitrile]
10000 to 100000 nM	CNC(=O)c1cc(-c2ccccc2)cc2oc([C@@H]3CCCN3C#N)nc12 [Example 122, (S)-2-(1-Cyanopyrrolidin-2-yl)-N-methyl-6-phenylbenzo[d]oxazole-4-carboxamide]
100 to 1000 nM	N#CN1CCC(c2cccc(-c3ccccc3)c2N)C1 (stereo not shown) [Example 123, 3-(2-Amino-[1,1′-biphenyl]-3-yl)pyrrolidine-1-carbonitrile]
100 to 1000 nM	N#CN1CCC(c2cnc3cc(-c4ccccc4)ccn23)C1 (stereo not shown) [Example 124, 3-(7-Phenylimidazo[1,2-a]pyridin-3-yl)pyrrolidine-1-carbonitrile]
1000 to 10000 nM	Cc1noc(C)c1-c1ccn2c(C3CCN(C#N)C3)cnc2c1 (stereo not shown) [Example 125, 3-(7-(3,5-Dimethylisoxazol-4-yl)imidazo[1,2-a]pyridin-3-yl)pyrrolidine-1-carbonitrile]
100 to 1000 nM	N#Cc1cccc(-c2ccc3oc([C@@H]4CCCN4C#N)nc3c2)c1 [Example 126, (S)-2-(5-(3-Cyanophenyl)benzo[d]oxazol-2-yl)pyrrolidine-1-carbonitrile]
1000 to 10000 nM	N#Cc1cccc(-c2ccc3oc([C@@H]4CCCN4C#N)nc3c2)n1 [Example 127, (S)-6-(2-(1-Cyanopyrrolidin-2-yl)benzo[d]oxazol-5-yl)picolinonitrile]
100 to 1000 nM	N#Cc1cccc(-c2ccc3nc([C@@H]4CCCN4C#N)oc3c2)c1 [Example 128, (S)-2-(6-(3-Cyanophenyl)benzo[d]oxazol-2-yl)pyrrolidine-1-carbonitrile]
100 to 1000 nM	CCc1cccc(-c2ccc3oc([C@@H]4CCCN4C#N)nc3c2)c1 [Example 129, (S)-2-(5-(3-Ethylphenyl)benzo[d]oxazol-2-yl)pyrrolidine-1-carbonitrile]
100 to 1000 nM	CCc1cccc(-c2ccc3nc([C@@H]4CCCN4C#N)oc3c2)c1 [Example 130, (S)-2-(6-(3-Ethylphenyl)benzo[d]oxazol-2-yl)pyrrolidine-1-carbonitrile]
1000 to 10000 nM	CCc1cccc(-c2cc(C(=O)NC)c3nc([C@@H]4CCCN4C#N)oc3c2)c1 [Example 131, (S)-2-(1-Cyanopyrrolidin-2-yl)-6-(3-ethylphenyl)-N-methylbenzo[d]oxazole-4-carboxamide]
1000 to 10000 nM	N#Cc1cccc(-c2ccc3nc([C@@H]4CCCN4C#N)oc3c2)n1 [Example 132, (S)-6-(2-(1-Cyanopyrrolidin-2-yl)benzo[d]oxazol-6-yl)picolinonitrile]
